Measured values as given in ChEMBL document CHEMBL4364241, “Developments in the anticancer activity of structurally modified curcumin: An up-to-date review” (Eur J Med Chem, 2019).
pIC50: −log10 of the molar value.

Columns and labels:
[1] = Cytotoxicity against mitoxantrone resistant […] cells expressing BCRP after 15 mins by fluorescence assay; type: functional, cell-based; settings: Canis lupus familiaris, MDCK2, 0.25 h
SK-OV-3 = test: Cytotoxicity against human SKOV3 Cells after 48 hrs by Cell Titer Blue assay; type: functional, cell-based; settings: SK-OV-3, 48 h
BGC-823 [2] = test: Antiproliferative activity against human BGC823 cells after 24 hrs by MTT assay; type: functional, cell-based; settings: BGC-823, 24 h
HCT-116 = test: Cytotoxicity against human HCT116 Cells; type: functional, cell-based
SGC-7901 [3] = test: Antiproliferative activity against human SGC7901 cells after 24 hrs by MTT assay; type: functional, cell-based; settings: SGC-7901, 24 h
CT26 = test: Cytotoxicity against mouse CT26 cells; type: functional, cell-based
SW-620 = test: Cytotoxicity against human SW620 Cells; type: functional, cell-based
DU-145 = test: Anticancer activity against human DU145 cells; type: functional, cell-based
MGC-803 [4] = test: Antiproliferative activity against human MGC803 cells after 24 hrs by MTT assay; type: functional, cell-based; settings: MGC-803, 24 h
PC-3 [5] = test: Anticancer activity against human PC3 cells; type: functional, cell-based
HEp-2 = test: Cytotoxicity against human Hep2 Cells; type: functional, cell-based
L02 = test: Cytotoxicity against human HL-7702 cells; type: functional, cell-based
HT-29 [6] = test: Cytotoxicity against human HT-29 cells by MTT assay; type: functional, cell-based
MCF7 [7] = test: Cytotoxicity against human MCF7 cells by MTT assay; type: functional, cell-based
PC-3 [8] = test: Cytotoxicity against human PC3 cells by MTT assay; type: functional, cell-based
A549 [9] = test: Cytotoxicity against human A549 Cells by MTT assay; type: functional, cell-based
NCI-H460 = test: Cytotoxicity against human H460 cells by MTT assay; type: functional, cell-based
PANC-1 = test: Cytotoxicity against human PANC1 cells by MTT assay; type: functional, cell-based
MIA PaCa-2 = test: Cytotoxicity against human MIAPaCa2 cells by MTT assay; type: functional, cell-based
MCF7 [10] = test: Cytotoxicity against human MCF7 Cells after 48 hrs by MTS assay; type: functional, cell-based; settings: MCF7, 48 h
[11] = Cytotoxicity against human CCD-1059SK Cells after 48 hrs by MTS assay; type: functional
AGS = test: Cytotoxicity against human AGS Cells by MTT assay; type: functional, cell-based
HT-29 [12] = test: Cytotoxicity against human HT-29 Cells; type: functional, cell-based
PC-3 [13] = test: Cytotoxicity against human PC3 cells; type: functional, cell-based
RWPE-1 = test: Cytotoxicity against human RWPE1 cells; type: functional, cell-based
NCI-H1299 = test: Cytotoxicity against human H1299 cells; type: functional, cell-based
BXPC-3 = test: Cytotoxicity against human BxPC3 cells; type: functional, cell-based
MCF7 [14] = test: Induction of apoptosis in human MCF7 cells; type: functional, cell-based
K562 = test: Cytotoxicity against human K562 Cells after 24 to 48 hrs by MTT assay; type: functional, cell-based
A549 [15] = test: Cytotoxicity against human A549 Cells after 24 to 48 hrs by MTT assay; type: functional, cell-based
SW480 = test: Cytotoxicity against human SW480 Cells after 24 to 48 hrs by MTT assay; type: functional, cell-based
Caco-2 = test: Cytotoxicity against human Caco2 Cells after 72 hrs by MTT assay; type: functional, cell-based; settings: Caco-2, 72 h
CHO-K1 = test: Cytotoxicity against […] Cells after 72 hrs by MTT assay; type: functional, cell-based; settings: Cricetulus griseus, CHO-K1, 72 h
HepG2 [16] = test: Cytotoxicity against human HepG2 Cells after 72 hrs by MTT assay; type: functional, cell-based; settings: HepG2, 72 h
EA.hy 926 = test: Cytotoxicity against human EAhy926 Cells after 72 hrs by MTT assay; type: functional, cell-based; settings: EA.hy 926, 72 h
HT-29 [17] = test: Cytotoxicity against human HT-29 Cells after 72 hrs by MTT assay; type: functional, cell-based; settings: HT-29, 72 h
U-251 = test: Cytotoxicity against human U251MG cells after 48 hrs by MTS assay; type: functional, cell-based; settings: U-251, 48 h
[18] = Cytotoxicity against human GBM6 Cells 48 hrs by MTS assay; type: functional; settings: GBM6, 48 h
[19] = Cytotoxicity against human GBM2 Cells 48 hrs by MTS assay; type: functional; settings: GBM2, 48 h
U-87 MG = test: Cytotoxicity against human U87MG Cells 48 hrs by MTS assay; type: functional, cell-based, U-87MG ATCC
[20] = Cytotoxicity against human GBM4 Cells 48 hrs by MTS assay; type: functional
[21] = Cytotoxicity against human GBM3 Cells 48 hrs by MTS assay; type: functional; settings: GBM3, 48 h
[22] = Cytotoxicity against human GBM5 Cells 48 hrs by MTS assay; type: functional
U373 MG = test: Cytotoxicity against human U373MG Cells 48 hrs by MTS assay; type: functional, cell-based, U-373MG ATCC
[23] = Cytotoxicity against human GBM1 Cells 48 hrs by MTS assay; type: functional; settings: GBM1, 48 h
HSC-2 = test: Cytotoxicity against human HSC2 cells; type: functional, cell-based
HSC-3 = test: Cytotoxicity against human HSC3 cells; type: functional, cell-based
HL-60 = test: Cytotoxicity against human HL60 cells; type: functional, cell-based
HSC-4 = test: Cytotoxicity against human HSC4 cells; type: functional, cell-based
HepG2 [24] = test: Cytotoxicity against human HepG2 Cells after 48 hrs by MTT assay; type: functional, cell-based; settings: HepG2, 48 h
MCF7 [25] = test: Cytotoxicity against human MCF7 Cells after 48 hrs by MTT assay; type: functional, cell-based; settings: MCF7, 48 h
NIH3T3 = test: Cytotoxicity against mouse 3T3 Cells after 48 hrs by MTT assay; type: functional, cell-based; settings: NIH3T3, 48 h
[26] = Cytotoxicity against human LX2 Cells after 48 hrs by MTT assay; type: functional; settings: LX-2, 48 h
BGC-823 [27] = test: Cytotoxicity against human BGC823 cells; type: functional, cell-based
SGC-7901 [28] = test: Cytotoxicity against human SGC7901 cells; type: functional, cell-based
GES1 = test: Cytotoxicity against human GES-1 cells; type: functional, cell-based
MGC-803 [29] = test: Cytotoxicity against human MGC803 cells; type: functional, cell-based
HeLa = test: Anticancer activity against human HeLa cells; type: functional, cell-based

COc1cc(/C=C2\CNC/C(=C\c3ccc(O)c(OC)c3)C2=O)ccc1O
pIC50 [1]: 5.37

COc1ccc(/C=C/C(=O)/C=C(O)/C=C/c2ccc(OC)c(OC)c2)cc1OC
pIC50 (SK-OV-3): 5.45

COc1ccc(/C=C/C(=O)/C=C(O)/C=C/c2ccc(OC)c(O)c2)cc1O
pIC50 (SK-OV-3): 5.25

COc1ccc(OC)c(/C=C2\CNC/C(=C\c3cc(OC)ccc3OC)C2=O)c1
pIC50 [1]: 5.92

COc1cc(/C=C/C(=O)/C=C/c2ccccc2[N+](=O)[O-])ccc1O
pIC50 (BGC-823 [2]): 5.48
pIC50 (HCT-116): 5.66
pIC50 (SGC-7901 [3]): 5.37
pIC50 (CT26): 5.80
pIC50 (SW-620): 5.55
pIC50 (DU-145): 5.43
pIC50 (MGC-803 [4]): 5.57
pIC50 (PC-3 [5]): 5.46

CCN1C/C(=C\c2cc(OC)c(OC)c(OC)c2)C(=O)/C(=C/c2cc(OC)c(OC)c(OC)c2)C1
pIC50 (HEp-2): 4.78
pIC50 (L02): 4.33

CN1CC(Cc2ccc(N(C)C)cc2[N+](=O)[O-])C(=NO)C(Cc2ccc(N(C)C)cc2[N+](=O)[O-])C1 (configuration not stated)
pIC50 (HT-29 [6]): 7.30
pIC50 (MCF7 [7]): 7.05
pIC50 (PC-3 [8]): 7.10
pIC50 (A549 [9]): 7.05
pIC50 (NCI-H460): 7.10
pIC50 (PANC-1): 7.00
pIC50 (MIA PaCa-2): 7.15

COc1ccc(/C=N/NC(=O)/C=C/c2ccc(O)c(OC)c2)cc1
pIC50 (MCF7 [10]): 4.39
pIC50 [11]: 3.80

COc1ccc(/C=C/C(=O)/C(CNc2ccc(S(N)(=O)=O)cc2)=C(O)/C=C/c2ccc(OC)cc2)cc1
pIC50 (A549 [9]): 5.20
pIC50 (AGS): 4.92

COc1cc(/C=C2/C(=O)/C(=C/c3cc(OC)c(OC)c(OC)c3)c3ccccc32)cc(OC)c1OC
pIC50 (HT-29 [12]): 6.01
pIC50 (PC-3 [13]): 6.19
pIC50 (RWPE-1): 5.04
pIC50 (NCI-H1299): 6.02
pIC50 (BXPC-3): 6.00

COc1cc(/C=C/C(=O)C(=CC2CCN(C(=O)OC(C)(C)C)CC2)C(=O)/C=C/c2ccc(O)c(OC)c2)ccc1O
pIC50 (MCF7 [14]): 5.82

O=C(/C=C/c1c[nH]c2ccccc12)CC(=O)/C=C/c1c[nH]c2ccccc12
pIC50 (K562): 4.47 to 4.49
pIC50 (A549 [15]): 4.57 to 4.60
pIC50 (SW480): 5.05 to 5.15

O=C(/C=C(O)/C=C/c1c[nH]c2ccccc12)/C=C/c1c[nH]c2ccccc12
pIC50 (Caco-2): 5.48
pIC50 (CHO-K1): 5.10
pIC50 (HepG2 [16]): 5.00
pIC50 (EA.hy 926): 4.93
pIC50 (HT-29 [17]): 4.94

C=CC(=O)NC(c1ccccc1)C(C(=O)/C=C/c1cccc(O)c1)C(=O)/C=C/c1cccc(O)c1 (configuration not stated)
pIC50 (U-251): 6.48
pIC50 [18]: 5.63
pIC50 [19]: 5.84
pIC50 (U-87 MG): 6.42
pIC50 [20]: 5.90
pIC50 [21]: 5.84
pIC50 [22]: 6.04
pIC50 (U373 MG): < 5.30
pIC50 [23]: 6.06

CN1CCC(Cc2ccc(/C=C/C(=O)/C=C/c3ccc(CN4CCN(C)CC4)c(O)c3)cc2O)CC1
pIC50 (HSC-2): 5.41
pIC50 (HSC-3): 5.52
pIC50 (HL-60): 5.74
pIC50 (HSC-4): 5.52

COc1ccc(/C=C/C(=O)Oc2ccc(/C=C/C(=O)CC(=O)/C=C/c3ccc(OC(=O)/C=C/c4ccc(OC)c(O)c4)c(OC)c3)cc2OC)cc1O
pIC50 (HepG2 [24]): 6.24
pIC50 (MCF7 [25]): 6.29
pIC50 (NIH3T3): 6.10
pIC50 [26]: 6.20

COc1ccc(OC)c(/C=C2\CC/C(=C\c3ccc(O)c(OC)c3)C2=O)c1
pIC50 (BGC-823 [27]): 5.33
pIC50 (SGC-7901 [28]): 5.41
pIC50 (GES1): 4.56
pIC50 (MGC-803 [29]): 4.88

O=C(/C=C(O)/C=C/c1ccc(OCC(=O)NCC(=O)O)cc1)/C=C/c1ccc(OCC(=O)NCC(=O)O)cc1
pIC50 (HeLa): 6.30

COc1cc(/C=C/C(=O)/C=C(O)/C=C/c2ccc(OCC(=O)NCC(=O)O)c(OC)c2)ccc1OCC(=O)NCC(=O)O
pIC50 (HeLa): 6.30
